From article PMC12388523, “Flavonoids and Sesquiterpene Lactones from Lychnophora ericoides (Arnica-Do-Cerrado) and Their In Vitro Effects on Multiple Myeloma and Acute Myeloid Leukemia” (Metabolites, 2025)

Experiments:
KMS-12-BM = test system: KMS-12-BM; parameters: method as in PMID 20088798; conditions: sister cell line of KMS-12-PE, read-out: IC50 inhibition of proliferation; cited from earlier work
other MM cell lines = test system: other MM cell lines; parameters: method as in PMID 20088798; conditions: cited from earlier work
HS-5 cells [1] = test system: HS-5 cells; parameters: method as in PMID 36768497; conditions: cited from earlier work
KMS-12-PE = conditions: 10 nM; cited from earlier work
HL-60 cells [2] = experiment: Proliferation, [3H]-thymidine uptake, HL-60; type: cell-based; conditions: for mean percentage of proliferation ± SE: 72 h, relative to control; for IC50: Homo sapiens, HL-60, 72 h, 95% confidence interval in brackets, read-out: IC50 inhibition of proliferation
Protocol: (§1) Acute myeloid leukemia cell line HL-60 and multiple myeloma cell lines AMO-1 and KMS-12-PE were obtained from the German Collection of Microorganisms and Cell Cultures (DSMZ), Braunschweig, Germany, and non-tumorigenic stromal cell line HS-5 was acquired from the American Type Culture Collection (ATCC, Manassas, VA, USA). All cell lines were cultured in RPMI 1640 medium without phenol red (Pan Biotech, Aidenbach, Germany), supplemented with 2 mM glutamine, 100 U/mL penicillin, 100 µg/mL streptomycin (Sigma-Aldrich, St. Louis, MO, USA), and 10% fetal bovine serum (FBS Maximus, Catus Biotech GmbH, Tutzing, Germany) at 37 °C in a humidified atmosphere of 5% CO2/95% air. Cells were fed twice weekly. Logarithmically growing cells were resuspended at 1 × 10^5 cells/mL, plated in triplicate in round-bottom 96-well plates (100 µL per well; Falcon, Becton Dickinson, Franklin Lakes, NJ, USA), and incubated at 37 °C in 5% CO2/95% air for 2 h. Subsequently, the compounds were adjusted in the cell culture medium to reach the final concentrations in a total volume of 150 µL and incubated for an additional 72 h. Cell proliferation was assessed by [^3H]-thymidine uptake. Each well was exposed to 2 µCi [^3H]-thymidine (Hartmann Analytic, Braunschweig, Germany) during the final 12–16 h of incubation. Cells were harvested using a semi-automated device, and [^3H]-thymidine incorporation (expressed in counts per minute, cpm) was measured with a scintillation counter (MicroBeta TriLux, PerkinElmer, Waltham, MA, USA). Metabolic activity was assessed by resazurin staining. Resazurin (Carl Roth, Karlsruhe, Germany) was dissolved in distilled water at a concentration of 0.1 mg/mL, and 15 µL of this solution was added to each well, followed by a 2 h incubation at 37 °C. Relative fluorescence units (RFUs) were measured using a Synergy H1 plate reader equipped with a 560 nm excitation/590 nm emission filter set (BioTek; Agilent, Santa Clara, CA, USA). Proliferation and metabolic activity in the absence of compounds were defined as 100% (control), and the values for compound-treated samples were expressed as percentages relative to the control. Selectivity indices were calculated by dividing the IC50 value of each compound against HS-5 cells through the IC50 values against the investigated cell lines.
(§2) The Wilcoxon Rank Sum Test was used to analyze proliferation and metabolic activity in the absence and presence of varying compound concentrations (NCSS 2007 software, version 07.1.2, Kaysville, UT, USA). A p-value < 0.05 was considered statistically significant. IC50 values were calculated using GraphPad Prism 10.1.2. This software reports 95% confidence intervals instead of standard errors. […] Nonetheless, the figures clearly illustrate the IC50 values due to the narrow concentration range tested.

MOLM-13 cells [3] = experiment: Proliferation, [3H]-thymidine uptake, MOLM-13; type: cell-based; conditions: for mean percentage of proliferation ± SE: 72 h, relative to control; for IC50: Homo sapiens, MOLM-13, 72 h, 95% confidence interval in brackets, read-out: IC50 inhibition of proliferation
Protocol: [The source words this procedure for another cell line and reports this cell line under the same test.] as §1, §2

AMO-1 cells [4] = experiment: Proliferation, [3H]-thymidine uptake, AMO-1; type: cell-based; conditions: for mean percentage of proliferation ± SE: 72 h, relative to control; for IC50: AMO-1, 72 h, 95% confidence interval in brackets, read-out: IC50 inhibition of proliferation; for Selectivity index (proliferation): IC50 HS-5 / IC50 AMO-1
Protocol: as §1, §2

KMS-12-PE cells [5] = experiment: Proliferation, [3H]-thymidine uptake, KMS-12-PE; type: cell-based; conditions: for mean percentage of proliferation ± SE: KMS-12 PE, relative to control; for mean percentage of proliferation ± SE / IC50: 72 h; for IC50: KMS-12-PE, 95% confidence interval in brackets, read-out: IC50 inhibition of proliferation; for Selectivity index (proliferation): IC50 HS-5 / IC50 KMS-12-PE
Protocol: as §1, §2

HL-60 cells [6] = experiment: Metabolic activity, resazurin staining, HL-60; type: cell-based; conditions: for Metabolic activity, mean percentage ± SE: 72 h, relative to control; for IC50: Homo sapiens, HL-60, 72 h, resazurin, 95% confidence interval in brackets, read-out: IC50 inhibition of metabolic activity; for Selectivity index (metabolic activity): IC50 HS-5 / IC50 HL-60
Protocol: as §1, §2
(§3) Proliferation inhibition often leads to cell death. Therefore, the cytotoxic activity of the compounds was further evaluated using a modified 3-(4,5-dimethylthiazol-2-yl)-2,5-diphenyltetrazolium bromide (MTT) assay, the resazurin (Alamar Blue) assay. Metabolically active cells reduce the non-fluorescent dye resazurin to the fluorescent dye resorufin via mitochondrial reductase activity, which correlates with cell viability. In the first step the metabolic activity of the four isolated flavonoids was investigated, showing a dose-dependent reduction, but to a much lower extent than in the proliferation assays (Table A2). In fact, only 7,3′,4′-trimethoxymyricetin (2) inhibited the metabolic activity of all four cell lines by more than 50% at a concentration of 100 µM.

MOLM-13 cells [7] = experiment: Metabolic activity, resazurin staining, MOLM-13; type: cell-based; conditions: for Metabolic activity, mean percentage ± SE: 72 h, relative to control; for IC50: Homo sapiens, MOLM-13, 72 h, resazurin, 95% confidence interval in brackets, read-out: IC50 inhibition of metabolic activity; for Selectivity index (metabolic activity): IC50 HS-5 / IC50 MOLM-13
Protocol: [The source words this procedure for another cell line and reports this cell line under the same test.] as §1, §2, §3

AMO-1 cells [8] = experiment: Metabolic activity, resazurin staining, AMO-1; type: cell-based; conditions: for Metabolic activity, mean percentage ± SE: 72 h, relative to control; for IC50: Homo sapiens, AMO1, AMO-1, 72 h, resazurin, 95% confidence interval in brackets, read-out: IC50 inhibition of metabolic activity; for Selectivity index (metabolic activity): IC50 HS-5 / IC50 AMO-1
Protocol: as §1, §2, §3

KMS-12-PE cells [9] = experiment: Metabolic activity, resazurin staining, KMS-12-PE; type: cell-based; conditions: for Metabolic activity, mean percentage ± SE: KMS-12 PE, relative to control; for Metabolic activity, mean percentage ± SE / IC50: 72 h; for IC50: Homo sapiens, KMS-12-PE, resazurin, 95% confidence interval in brackets, read-out: IC50 inhibition of metabolic activity; for Selectivity index (metabolic activity): IC50 HS-5 / IC50 KMS-12-PE
Protocol: as §1, §2, §3

HS-5 cells [10] = experiment: Proliferation, [3H]-thymidine uptake, non-malignant HS-5; type: cell-based; conditions: HS5; HS-5 (non-malignant), 72 h, 95% confidence interval in brackets; read-out: IC50 inhibition of proliferation
Protocol: as §1, with “Subsequently, the compounds were adjusted in the cell culture medium to reach the final concentrations in a total volume of 150 µL and incubated for an additional 72 h.” left out, “Each well was exposed to 2 µCi [^3H]-thymidine (Hartmann Analytic, Braunschweig, Germany) during the final 12–16 h of incubation.” left out, “Resazurin (Carl Roth, Karlsruhe, Germany) was dissolved in distilled water at a concentration of 0.1 mg/mL, and 15 µL of this solution was added to each well, followed by a 2 h incubation at 37 °C.” left out
(§4) The Wilcoxon Rank Sum Test was used to analyze proliferation and metabolic activity in the absence and presence of varying compound concentrations (NCSS 2007 software, version 07.1.2, Kaysville, UT, USA). […] IC50 values were calculated using GraphPad Prism 10.1.2. […]

HS-5 cells [11] = experiment: Metabolic activity, resazurin staining, non-malignant HS-5; type: cell-based; conditions: HS5, HS-5 (non-malignant), 72 h, 95% confidence interval in brackets, read-out: IC50 inhibition of metabolic activity
Protocol: as §1, with “Subsequently, the compounds were adjusted in the cell culture medium to reach the final concentrations in a total volume of 150 µL and incubated for an additional 72 h.” left out, “Each well was exposed to 2 µCi [^3H]-thymidine (Hartmann Analytic, Braunschweig, Germany) during the final 12–16 h of incubation.” left out, “Resazurin (Carl Roth, Karlsruhe, Germany) was dissolved in distilled water at a concentration of 0.1 mg/mL, and 15 µL of this solution was added to each well, followed by a 2 h incubation at 37 °C.” left out
as §4

KB cell line = test system: KB cell line; parameters: method as in PMID 17089326; conditions: cited from earlier work
BC cell line = test system: BC cell line; parameters: method as in PMID 17089326; conditions: cited from earlier work
[12] = test system: human colon cancer cell line HT-29; parameters: method as in PMID 22685350; conditions: cited from earlier work
NF-κB p65 = test system: NF-κB p65; parameters: method as in PMID 22685350; conditions: read-out: concentration inhibiting NF-κB p65; cited from earlier work

Nc1cccc2c1CN(C1CCC(=O)NC1=O)C2=O (stereo not drawn) [lenalidomide]
IC50 (KMS-12-BM): 57 nM | IC50 concentrations (in words) (other MM cell lines): high µM range

N.N.[Cl][Pt][Cl] [Cisplatin]
concentration needed to inhibit HS-5 cells (HS-5 cells [1]): above 1 µM

COc1cccc2c1C(=O)c1c(O)c3c(c(O)c1C2=O)C[C@@](O)(C(=O)CO)C[C@@H]3O[C@H]1C[C@H](N)[C@H](O)[C@H](C)O1 [doxorubicin]
proliferation inhibited to (KMS-12-PE): 45.5%

COc1cc(O)c2c(=O)c(OC)c(-c3ccc(OC)c(OC)c3)oc2c1 [Compound 1, retusin]
mean percentage of proliferation ± SE (HL-60 cells [2]; HL-60, 50 µM): 76.0 ± 3.0 % | mean percentage of proliferation ± SE (HL-60 cells [2]; HL-60, 100 µM): 65.6 ± 3.1 % | mean percentage of proliferation ± SE (MOLM-13 cells [3]; MOLM-13, 50 µM): 76.9 ± 4.7 % | mean percentage of proliferation ± SE (MOLM-13 cells [3]; MOLM-13, 100 µM): 57.8 ± 6.8 % | mean percentage of proliferation ± SE (AMO-1 cells [4]; AMO-1, 50 µM): 73.5 ± 7.5 % | mean percentage of proliferation ± SE (AMO-1 cells [4]; AMO-1, 100 µM): 66.9 ± 7.8 % | mean percentage of proliferation ± SE (KMS-12-PE cells [5]; 50 µM): 85.2 ± 1.8 % | mean percentage of proliferation ± SE (KMS-12-PE cells [5]; 100 µM): 73.0 ± 1.9 % | Metabolic activity, mean percentage ± SE (HL-60 cells [6]; HL-60, 50 µM): 93.0 ± 4.4% | Metabolic activity, mean percentage ± SE (HL-60 cells [6]; HL-60, 100 µM): 85.9 ± 1.8% | Metabolic activity, mean percentage ± SE (MOLM-13 cells [7]; MOLM-13, 50 µM): 88.5 ± 3.8 % | Metabolic activity, mean percentage ± SE (MOLM-13 cells [7]; MOLM-13, 100 µM): 80.5 ± 2.6 % | Metabolic activity, mean percentage ± SE (AMO-1 cells [8]; AMO-1, 50 µM): 91.4 ± 8.9 % | Metabolic activity, mean percentage ± SE (AMO-1 cells [8]; AMO-1, 100 µM): 81.0 ± 4.2 % | Metabolic activity, mean percentage ± SE (KMS-12-PE cells [9]; 50 µM): 100.9 ± 4.1% | Metabolic activity, mean percentage ± SE (KMS-12-PE cells [9]; 100 µM): 95.1 ± 4.5%

C=C1C(=O)O[C@@H]2/C=C(/CO)C3=CC(=O)[C@@](C)(C[C@H](OC(=O)/C(C)=C\C)[C@@H]12)O3 [Compound 6, centratherin]
IC50 (HL-60 cells [2]): 1200 nM | Selectivity index (proliferation) (HL-60 cells [2]; IC50 HS-5 / IC50 HL-60): 2.1 | IC50 (MOLM-13 cells [3]): 1100 nM | Selectivity index (proliferation) (MOLM-13 cells [3]; IC50 HS-5 / IC50 MOLM-13): 2.2 | IC50 (AMO-1 cells [4]; Homo sapiens, AMO1, 72 h): 2200 nM | Selectivity index (proliferation) (AMO-1 cells [4]): 1.1 | IC50 (KMS-12-PE cells [5]; Homo sapiens): 2200 nM | Selectivity index (proliferation) (KMS-12-PE cells [5]): 1.4 | IC50 (KMS-12-PE cells [5]): 1800 nM | IC50 (HS-5 cells [10]): 2500 nM | IC50 (HL-60 cells [6]): 1900 nM | Selectivity index (metabolic activity) (HL-60 cells [6]): 2.4 | IC50 (MOLM-13 cells [7]): 1300 nM | Selectivity index (metabolic activity) (MOLM-13 cells [7]): 3.5 | IC50 (AMO-1 cells [8]): 2400 nM | Selectivity index (metabolic activity) (AMO-1 cells [8]): 1.9 | IC50 (KMS-12-PE cells [9]): 2700 nM | Selectivity index (metabolic activity) (KMS-12-PE cells [9]): 1.6 | IC50 (HS-5 cells [11]): 4500 nM | IC50 (KB cell line): < 300 nM | IC50 (BC cell line): < 300 nM

C=C1C(=O)O[C@@H]2/C=C(/C)C3=CC(=O)[C@@](C)(C[C@H](OC(=O)/C(C)=C\C)[C@@H]12)O3 [Compound 7, lychnopholide]
IC50 (HL-60 cells [2]): 1300 nM | IC50 (MOLM-13 cells [3]): 1400 nM | IC50 (AMO-1 cells [4]): 2200 nM | IC50 (AMO-1 cells [4]; Homo sapiens, AMO1, 72 h): 1800 nM | Selectivity index (proliferation) (AMO-1 cells [4]): 2.0 | IC50 (KMS-12-PE cells [5]; Homo sapiens): 2600 nM | Selectivity index (proliferation) (KMS-12-PE cells [5]): 1.7 | IC50 (HS-5 cells [10]): 4300 nM | IC50 (HL-60 cells [6]): 2900 nM | Selectivity index (metabolic activity) (HL-60 cells [6]): 1.7 | IC50 (MOLM-13 cells [7]): 1800 nM | Selectivity index (metabolic activity) (MOLM-13 cells [7]): 2.8 | IC50 (AMO-1 cells [8]): 3400 nM | Selectivity index (metabolic activity) (AMO-1 cells [8]): 1.4 | IC50 (KMS-12-PE cells [9]): 4000 nM | Selectivity index (metabolic activity) (KMS-12-PE cells [9]): 1.2 | IC50 (HS-5 cells [11]): 4900 nM | IC50 [12]: 1400 nM | IC50 (NF-κB p65): 2900 nM
